Earlier results as cited in patent US20040219200A1, “Topical patch preparation containing a delayed-type hypersensitivity inducer and methods for using the same” (priority 2001, published 2004).

Settings: research conducted in the 1950s in the US

O=[N+]([O-])c1ccc(Cl)c([N+](=O)[O-])c1 [DNCB, 1-chloro-2,4-dinitrobenzene]
Carcinogenicity: not carcinogenic
